# Reference: patent publication US9988626B2, “Neurocalcin delta inhibitors and therapeutic and non-therapeutic uses thereof” (Universität Zu Köln, priority 2013, dated 2018)
# Legend:
# Format in all cases: in vivo
# zebrafish embryos = test: Whole cell current clamp recordings of endplate potentials in zebrafish ventral fast muscle cells
# Method: Experiments were conducted with zebrafish embryos (wildtype (wt) contras, smn-, ncald-, and smn/ncald-morphants) 72 hours post fertilization. The animals were anesthetized with 0.02% tricaine (in saline; E10521, Sigma-Aldrich, Taufkirchen, Germany) for 1-2 min and then rinsed with saline. The saline contained (in mM): 134 NaCl, 2.9 KCl, 2.1 CaCl2, 1.2 MgCl2, 10 HEPES, 10 Glucose adjusted to pH 7.8 with NaOH. The fish were decapitated and pinned under saline in a Sylgard-coated (SYLG184, Dow Coming, Midland, Mich.) recording chamber (˜3 ml volume). The skin was peeled off using a sharp tungsten pin and fine forceps and the preparation was incubated in 3 M formamide (in saline; 6749.1, Carl Roth GmbH, Karlsruhe) for 2 min to prevent muscle contractions. After rinsing the preparation, the superficial layer of ventral slow muscle cells was removed by gently scratching with a fine tungsten pin to expose deeper lying fast skeletal muscle cells. Remaining superficial slow muscles in the segments of interest were removed with a low resistance pipette (˜2 MΩ). […] Muscle cells were visualized with a fixed-stage upright microscope (Zeiss Axio Examiner, Carl Zeiss Microscopy GmbH, Jena, Germany), using a 40× water immersion objective (W Plan-Apochromat, 40×; 1.0 numerical aperture; 2.5 mm working distance; Zeiss) with infrared-differential interference contrast (Dodt and Zieglgansberger 1990) and fluorescence optics. […]
# Whole-cell patch clamp recordings in current-clamp mode were performed with an EPC10 patch-clamp amplifier (HEKA-Elektronik, Lambrecht, Germany) that was controlled by the program Patchmaster (version 2.53, HEKA-Elektronik) running under Windows. […] The calculated liquid junction potential between intracellular and extracellular solution of 5.8 mV (calculated with Patcher's-Power-Tools plug-in from http://www.mpibpc.gwdg.de/abteilungen/140/software/index.html for Igor Pro 6 [Wavemetrics, Portland, Oreg., USA]) was also compensated. Whole-cell capacitance was determined by using the capacitance compensation (C-slow) of the EPC10. […]
# zebrafish larvae [1] = test: TEM analysis of synaptic cleft width of zebrafish NMJs
# Method: Whole zebrafish larvae were fixed in 4% PFA for 30 min and postfixed in 0.6% glutaraldehyde for 24 h. Larvae were embedded in Epoxy resin (Plano) and cross sections were performed according to previously described and adapted TEM protocol (Voigt et al. 2010). Thickness of semi-thin and ultra-thin sections was 0.5 μm and 0.1 μm, respectively. Image acquisition was performed as described in the supplement. Image acquisition was performed using the TEM CM10 (Philips) microscope with the Orius SC200W 1 Gatan camera and Digital Micrograph software.
# 48 hpf zebrafish larvae were fixed in 4% PFA for 30 min and postfixed in 0.6% glutaraldehyde for another day. Gold-labeled secondary antibodies were used for co-localization studies of Ncald and Clathrin. Image acquisition of ultra-thin sections with a thickness of […] was performed using the TEM CM10 (Philips) microscope with the Orius SC200W 1 Gatan camera and the Digital Micrograph software.
# 48 hpf zebrafish larvae were fixed in 4% PFA for […] and postfixed in 0.6% glutaraldehyde for another day. Samples were then prepared and embedded in resin as previously described. The thickness of semi-thin and ultra-thin sections was […], respectively. For immunogold stainings, in brie pre-stained sections were blocked and afterwards incubated with primary antibodies (anti-clathrin, 1:50, anti-NCALD, 1:50) and washed in PBS; after that sections were stained with gold-labelled secondary antibodies (donkey anti-mouse 6 nm gold, 1:100; goat anti-rabbit 20 nm gold 1:100; Abeam). Image acquisition was performed using the TEM CM10 (Philips) microscope with the Orius SC200W 1 Gatan camera and the Digital Micrograph software.
# zebrafish larvae [2] = test: High-speed tracking of zebrafish swimming velocity after electric stimulation; settings: 48 hpf zebrafish, n=30 per treatment
# Method: To analyse the swimming behaviour of zebrafish morphants, high-speed imaging was performed. In brief 30 zebrafish larvae, all treated with each respective morpholino, were placed in a 10 cm petri dish containing fish embryo medium. To trigger a swimming response, fish were stimulated with an electrical impulse (60 V; delay: 60 ms, duration: 4 ms, frequency: 6 pps (SD9 Stimulator)). Swimming behaviour was recorded with 120 frames per second using a high-speed camera (FC-100, Casio). Quality of the high-speed video was optimized for analysis (Adobe) and afterwards swimming velocity and distance was analysed using LoliTrack software (Loligo Systems).
# [3] = MO-injected 48 hpf fish, N=3, n=5 (FIG. 17E)
substance,measurement,setting,value
"smn MO: previously published morpholino knocking down zebrafish smn, CGACATCTTCTGCACCATTGGC (all phosphorodiamidate morpholino (PMO))",Frequency of large NMDA-induced EPP / action potentials,"zebrafish embryos; 72 hpf zebrafish, ventral fast muscle cells, NMDA (100 μM) stimulation",0.37±0.17 Hz
same,Spontaneous mEPP frequency at rest,"zebrafish embryos; 72 hpf zebrafish, ventral fast muscle cells, without stimulation",0.32±0.16 Hz
same,Resting and NMDA induced EPP activity,zebrafish embryos; zebrafish morphants compared to wild type,significant reduction of the mEPP and the EPP rate
same,Width of synaptic cleft / NMJ maturation,"zebrafish larvae [1]; Example 1, FIG. 8, 34 hpf zebrafish larvae",significant reduction of the width of the synaptic cleft
same,"Width of synaptic cleft, mean",zebrafish larvae [1]; [3],30.26 nm
same,"Width of synaptic cleft, median",zebrafish larvae [1]; [3],23.51 nm
same,Swimming velocity after electrical stimulation,zebrafish larvae [2],significantly reduced velocity
